Peptide text beside a SMILES is read from it. * marks the point of attachment. pNA = O=[N+]([O-])c1ccc(N*)cc1; Cbz = O=C(OCc1ccccc1)*
Experiments:
Assay type in all cases: biochemical
[1] = biological target: T1, FXllla (Homo sapiens, UniProt P00488); test: Initial experiments: cleavage by FXIIIa of Glu(pNA) peptides derived from the Berichrom substrate sequence
T1 sequence (P00488 39-732 limits assumed): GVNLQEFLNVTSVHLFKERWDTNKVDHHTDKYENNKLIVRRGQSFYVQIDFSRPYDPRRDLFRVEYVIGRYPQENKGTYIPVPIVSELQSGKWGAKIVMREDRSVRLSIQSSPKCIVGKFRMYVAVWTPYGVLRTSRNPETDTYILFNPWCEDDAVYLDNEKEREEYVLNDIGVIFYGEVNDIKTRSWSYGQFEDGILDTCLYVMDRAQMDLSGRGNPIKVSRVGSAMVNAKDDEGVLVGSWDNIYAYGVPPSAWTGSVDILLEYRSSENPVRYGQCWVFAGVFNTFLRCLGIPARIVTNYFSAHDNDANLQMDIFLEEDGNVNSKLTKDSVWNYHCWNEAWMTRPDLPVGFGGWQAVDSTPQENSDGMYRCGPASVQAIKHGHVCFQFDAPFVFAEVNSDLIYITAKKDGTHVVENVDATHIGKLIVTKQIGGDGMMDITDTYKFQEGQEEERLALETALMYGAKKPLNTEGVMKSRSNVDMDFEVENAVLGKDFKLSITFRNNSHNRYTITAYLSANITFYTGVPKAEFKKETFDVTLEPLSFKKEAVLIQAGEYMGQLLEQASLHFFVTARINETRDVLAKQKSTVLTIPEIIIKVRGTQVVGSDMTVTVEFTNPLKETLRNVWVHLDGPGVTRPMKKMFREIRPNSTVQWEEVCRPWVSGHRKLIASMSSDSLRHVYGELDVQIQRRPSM

[2] = biological target: T2, Faktor XIIIa (Homo sapiens, UniProt P00488); test: Cleavage of pNA substrates by activated factor XIIIa, absorbance at 405 nm (Michaelis-Menten kinetics and pre-test); conditions: for Vmax: change of absorbance at 405 nm per s, enzyme ca. 1,25 Einheiten/ml; for Vmax / Substratspaltung (Vortest): 37 °C; for Substratspaltung (Vortest): pre-test at constant substrate concentration, 405 nm
T2 construct: Aktivierung des Zymogens FXIII zu Faktor XIIIa; purchased Aventis Behring Fibrogammin HS
T2 sequence (P00488 39-732 limits assumed): T1 sequence (P00488 39-732 limits assumed)
Procedure: 250 Einheiten lyophilisiertes Fibrogammin HS (Aventis Behring) wurden in 4 ml Wasser gelöst, als 100 µl Portionen aliquotiert und bei -80 °C gelagert. 100 µl dieser Lösung enthalten 6,25 Einheiten FXIII.
100 µl des aliqotierten Fibrogammins (entspricht 6,25 Einheiten) wurden mit 500 µl TBS-Puffer (50 mM Tris-HCl, pH 7,5 in 0,9% (w/v) NaCl), 360 µl einer 0.9 % NaCl-Lösung, 10 µl einer 1 M CaCl2-Lösung und 20 µl einer Thrombinlösung (Rinderthrombin: 14,2 U in 20 µl) versetzt. Der Ansatz wurde 20 min bei 37 °C inkubiert, danach wurden 10 µl einer Lösung mit rekombinantem Hirudin zugesetzt (r-Hirudin: HBW 023 mit 13442 IU mg^-1, Stammlösung des r-Hirudin = 1 mg/ml). Dieser Aktivierungsansatz besitzt ein Gesamtvolumen von 1 ml, der aktivierte Faktor Xllla wurde bei 37 °C aufbewahrt und für die folgenden kinetischen Messungen verwendet.
Die Messungen wurden bei 405 nm und 37 °C mit einem Microplate Reader der Firma Labsystems (iEMS Reader MF) mit folgendem Messansatz durchgeführt: • 150 µl TBS-Puffer (siehe oben, der Puffer kann gegebenenfalls auch eine Aminkomponente enthalten, beispielsweise H-Gly-Ethylester oder H-Gly-Gly-Ethylester oder ein anderes Amin, falls vorhanden ist die finale Konzentration des Amins im Messansatz 2,5 mM oder höher) • 50 µl Substratlösung • 50 µl Enzymlösung (im Messansatz ca. 1,25 Einheiten/ml)
Sämtliche Lösungen wurden vor Benutzung bei 37 °C aufbewahrt, vor Zugabe der FXllla-Lösung wurde die Mikroreadermessplatte nochmals 5 min bei 37 °C im Messgerät temperiert. Nach Zugabe der FXllla-Lösung wurde die Substratspaltung gestartet und die Änderung der Absorption bei 405 nm gemessen. Für einen Vortest wurde eine konstante Substratkonzentration verwendet. […] Wir haben vermutet, dass vor allem die Aminosäuren N- und C-terminal des Glu(pNA)-Restes wichtig für die Substraterkennung sind, deshalb wurde das N-terminale Glycin und das an dritter Position befindliche Serin innerhalb der Berichromsequenz durch andere Aminosäurereste ersetzt. Durch den Vortest wurde festgestellt, dass einige dieser Substrate deutlich schneller als die Derivate S1 und S2 gespalten werden. Für ausgewählte Substrate wurden die Substratkonzentrationen im Messansatz variiert und die bestimmten Umsatzgeschwindigkeiten als Funktion der Substratkonzentration entsprechend der Michaelis-Menten-Gleichung v=Vmax·[S]/(Km+[S]) aufgetragen und somit die kinetischen Konstanten Km und Vmax bestimmt, wobei Vmax in der Einheit Absorptionsänderung bei 405 nm/s erhalten wurde. Dies ist in Fig. 1 und Fig. 2 gezeigt.

[3] = biological target: T2, Faktor XIIIa; test: Cleavage of AMC substrates by activated factor XIIIa, fluorescence plate reader (Michaelis-Menten kinetics); conditions: λEX = 380 nm, λEm = 460 nm, room temperature, enzyme ca. 0,893 Einheiten/ml
Procedure: Die Aliquotierung des Zymogens Faktor XIII und Aktivierung des Zymogens FXIII zu Faktor XIIIa erfolgten analog der in Beispiel 3 beschriebenen Prozedur.
Sämtliche Lösungen wurden bei Raumtemperatur aufbewahrt. Die Bestimmung der Spaltung der AMC-Substrate durch FXllla wurde mit einem Fluoreszenz-Plattenreader Safire^2 der Firma Tecan (λEX = 380 nm, λEm = 460 nm) bei Raumtemperatur durchgeführt. • 100 µl TBS-Puffer (siehe oben, der Puffer kann gegebenenfalls auch eine Aminkomponente enthalten, beispielsweise H-Gly-Ethylester oder H-Gly-Gly-Ethylester oder ein anderes Amin) • 50 µl Substratlösung • 25 µl Enzymlösung (im Messansatz ca. 0,893 Einheiten/ml)
Die Michaelis-Menten-Auftragung für die AMC-enthaltenden Substrate ist in Fig. 3 gezeigt.

[4] = test system: FXIIIa; test: Initial cleavage tests of Glu(pNA)/Glu(AMC) derivatives with FXIIIa (background section); conditions: release of pNA or AMC; no conditions given
Text: Nach derzeitigem Wissen existieren neben FXIII bzw. FXllla im Körper derzeit noch 8 weitere Transglutaminasen, dazu zählen TG1-TG7 sowie das Protein epb42, dass allerdings katalytisch unwirksam ist (Wodzinska, Mini Rev. in Med. Chem. 5 (2005) 279-292). Als erste Transglutaminase wurde das inzwischen als TG2 bezeichnete Enzym entdeckt. Dessen Aktivität lässt sich sehr einfach durch UV/VIS-spektroskopische oder fluorimetrische Messungen unter Verwendung simpler Aminosäurederiate nachweisen, beispielsweise durch Abspaltung von p-Nitroanlin aus H-Glu(pNA)-OH oder durch Abspaltung von Aminomethylcoumarin aus H-Glu(AMC)-OH (Smith et al., Anal. Biochem. 100 (1979) 136-139). […] Bisher wurden auch noch keine Peptidderivate beschrieben, die einen Glu(pNA) oder Glu(AMC)-Rest besitzen und gleichzeitig mit ausreichender Effektivität von FXllla unter Freisetzung von pNA oder AMC umgesetzt werden.

## CC[C@H](C)[C@H](NC(=O)[C@@H](NC(=O)[C@H](CCCCN)NC(=O)[C@H](CO)NC(=O)[C@H](CCC(=O)Nc1ccc([N+](=O)[O-])cc1)NC(=O)CNC(=O)[C@@H]1CCCN1)C(C)C)C(=O)NCC(N)=O [H-Pro-Gly-Glu(pNA)-Ser-Lys-Val-Ile-Gly-NH2] (H-PGE(pNA)SKVIG-NH2)
[1]
  Spaltung durch FXllla: fast gar nicht oder nur sehr langsam gepalten

## CC[C@H](C)[C@H](NC(=O)[C@@H](NC(=O)[C@H](CCCCN)NC(=O)[C@H](CO)NC(=O)[C@H](CCC(=O)Nc1ccc([N+](=O)[O-])cc1)NC(=O)CNC(=O)[C@@H]1CCCN1C(=O)CN)C(C)C)C(=O)NCC(N)=O [H-Gly-Pro-Gly-Glu(pNA)-Ser-Lys-Val-Ile-Gly-NH2] (H-GPGE(pNA)SKVIG-NH2)
[1]
  Spaltung durch FXllla: fast gar nicht oder nur sehr langsam gepalten

## CC[C@H](C)[C@H](NC(=O)[C@@H](NC(=O)[C@H](CCCNC(=N)N)NC(=O)[C@@H](NC(=O)[C@H](CCC(=O)Nc1ccc([N+](=O)[O-])cc1)NC(=O)[C@@H](N)Cc1ccc(O)cc1)C(C)C)C(C)C)C(=O)NCC(N)=O [Substrat S16, H-Tyr-Glu(pNA)-Val-Arg-Val-Ile-Gly-NH2] (H-YE(pNA)VRVIG-NH2)
[2]; pNA substrates, see Fig. 2
  Eignung als Substrat: geeignete Substrate
[2]; pNA substrates
  Vmax: 0,8 × 10^-4 dOD/s

## CC[C@H](C)[C@H](NC(=O)[C@@H](NC(=O)[C@H](CCCCN)NC(=O)[C@@H](NC(=O)[C@H](CCC(=O)Nc1ccc([N+](=O)[O-])cc1)NC(=O)[C@@H](N)Cc1ccc(O)cc1)C(C)C)C(C)C)C(=O)NCC(N)=O [Substrat S10, H-Tyr-Glu(pNA)-Val-Lys-Val-Ile-Gly-NH2] (H-YE(pNA)VKVIG-NH2)
[2]; pNA substrates
  Vmax: 0,95 × 10^-4 dOD/s

## CC[C@H](C)[C@H](NC(=O)[C@@H](NC(=O)[C@H](CCCCN)NC(=O)[C@H](CO)NC(=O)[C@H](CCC(=O)Nc1ccc([N+](=O)[O-])cc1)NC(C)=O)C(C)C)C(=O)NCC(N)=O [Ac-Glu(pNA)-Ser-Lys-Val-Ile-Gly-NH2] (Ac-E(pNA)SKVIG-NH2)
[1]
  Spaltung durch FXllla: fast gar nicht oder nur sehr langsam gepalten

## CC[C@H](C)[C@H](NC(=O)[C@@H](NC(=O)[C@H](CCCCN)NC(=O)[C@H](CCCCNC(=O)OCc1ccccc1)NC(=O)[C@H](CCC(=O)Nc1ccc([N+](=O)[O-])cc1)NC(=O)[C@@H](N)Cc1c[nH]cn1)C(C)C)C(=O)NCC(N)=O [Substrat S19, H-His-Glu(pNA)-Lys(Z)-Lys-Val-Ile-Gly-NH2] (H-HE(pNA)K(Cbz)KVIG-NH2)
[3]
  Vmax: 11,99 dRFU/s

## CC[C@H](C)[C@H](NC(=O)[C@@H](NC(=O)[C@H](CCCCN)NC(=O)[C@H](CO)NC(=O)[C@H](CCC(=O)Nc1ccc([N+](=O)[O-])cc1)NC(=O)CNC(=O)[C@@H]1CCCN1C(=O)CNC(=O)[C@@H](N)CC(C)C)C(C)C)C(=O)NCC(N)=O [H-Leu-Gly-Pro-Gly-Glu(pNA)-Ser-Lys-Val-Ile-Gly-NH2] (H-LGPGE(pNA)SKVIG-NH2)
[1]
  Spaltung durch FXllla: nur sehr langsam von FXllla gepalten

## CC[C@H](C)[C@H](NC(=O)[C@@H](NC(=O)[C@H](CCCCN)NC(=O)[C@@H](NC(=O)[C@H](CCC(=O)Nc1ccc([N+](=O)[O-])cc1)NC(=O)[C@@H](N)CCCCN)C(C)C)C(C)C)C(=O)NCC(N)=O [Substrat S18, H-Lys-Glu(pNA)-Val-Lys-Val-Ile-Gly-NH2] (H-KE(pNA)VKVIG-NH2)
[3]
  Vmax: 9,61 dRFU/s

## CC[C@H](C)[C@H](NC(=O)[C@@H](NC(=O)[C@H](CCCCN)NC(=O)[C@@H](NC(=O)[C@H](CCC(=O)Nc1ccc([N+](=O)[O-])cc1)NC(=O)[C@@H](N)Cc1ccc(O)cc1)C(C)C)C(C)C)C(N)=O [Substrat S12, H-Tyr-Glu(pNA)-Val-Lys-Val-Ile-NH2] (H-YE(pNA)VKVI-NH2)
[2]; pNA substrates
  Vmax: 1.33 × 10^-4 dOD/s

## CC[C@H](C)[C@H](NC(=O)[C@@H](NC(=O)[C@H](CCCCN)NC(=O)[C@H](CO)NC(=O)[C@@H](N)CCC(=O)Nc1ccc([N+](=O)[O-])cc1)C(C)C)C(=O)NCC(N)=O [H-Glu(pNA)-Ser-Lys-Val-Ile-Gly-NH2] (H-E(pNA)SKVIG-NH2)
[1]
  Spaltung durch FXllla: fast gar nicht oder nur sehr langsam gepalten

## CC[C@H](C)[C@H](NC(=O)[C@@H](NC(=O)[C@H](CCCCN)NC(=O)[C@H](CO)NC(=O)[C@H](CCC(=O)Nc1ccc([N+](=O)[O-])cc1)NC(=O)CN)C(C)C)C(=O)NCC(N)=O [Substrat S2, H-Gly-Glu(pNA)-Ser-Lys-Val-Ile-Gly-NH2] (H-GE(pNA)SKVIG-NH2)
[2]
  Substratspaltung (Vortest): nur langsam umgesetzt

## Cc1cc(=O)oc2cc(NC(=O)CC[C@H](N)C(=O)O)ccc12 [H-Glu(AMC)-OH]
[4]
  Spaltung durch FXIIIa: nicht gespalten

## N[C@@H](CCC(=O)Nc1ccc([N+](=O)[O-])cc1)C(=O)O [H-Glu(pNA)-OH]
[4]
  Spaltung durch FXIIIa: nicht gespalten

## CC(C)C[C@H](NC(=O)[C@@H]1CCCN1C(=O)[C@H](CO)NC(=O)[C@@H](NC(=O)[C@H](CC(N)=O)NC(=O)[C@H](CCC(=O)O)NC(=O)[C@H](CCC(=O)Nc1ccc([N+](=O)[O-])cc1)NC(=O)[C@@H](N)CC(N)=O)C(C)C)C(N)=O [Substrat S1, H-Asn-Glu(pNA)-Glu-Asn-Val-Ser-Pro-Leu-NH2] (H-NE(pNA)ENVSPL-NH2)
[2]
  Substratspaltung (Vortest): praktisch kaum gespalten
